{"source": "paper PMC5433425", "about": "(PeerJ, 2017)", "key": {"[1]": {"test_system": "human monocyte-derived macrophages", "assay": "Cytotoxicity, LDH release", "type": "cell-based", "details": "raw well reading, listed as PAN", "experimental": "(§1) The blood was collected from healthy donors and the peripheral blood mononuclear cells were isolated by Ficoll-Paque Plus (GE Healthcare, Freiburg, Germany) density gradient centrifugation as previously described ([Machado et al., 2016]). […] Fresh medium was added at day 4 post isolation. The effect of the compounds on human monocyte-derived macrophages was evaluated using the AlamarBlue method (Molecular Probes, Life Technologies) ([O’Brien et al., 2000]), and by measuring the release of the lactate dehydrogenase (LDH) into the culture supernatants using the Pierce LDH Cytotoxicity Assay (ThermoFisher Scientific, Waltham, MA, USA) ([Chan, Moriwaki & Rosa, 2013]) according to the manufacturer’s instructions. Briefly, 5 × 10^4 cells were seeded in 96-well microplates treated with the compounds, and incubated at 37 °C with 5% CO2. After 72 h of treatment, the cell viability was assessed. For the AlamarBlue method, the dye was added to each well to a final concentration of 10% and incubated overnight at 37 °C and 5% CO2. The fluorescence was measured with a 540/35 excitation filter and a 590/20 emission filter in a Synergy HT multi-mode microplate reader. The release of LDH from damaged cells into culture supernatants, as an indicator of cytotoxicity, was measured in serum-free medium. Here the amount of enzyme activity correlates to the number of damaged cells. The specific lysis was calculated as follows: (treated cells—spontaneous LDH release)/ (maximum LDH release—spontaneous LDH release) ×100."}, "[2]": {"assay": "Cytotoxicity, AlamarBlue method", "type": "cell-based, human", "details": "human, human monocyte-derived macrophages, three days of exposure, AlamarBlue", "experimental": "as §1"}, "[3]": {"test_system": "human monocyte-derived macrophages", "assay": "Cytotoxicity, AlamarBlue method", "type": "cell-based", "details": "for AlamarBlue fluorescence 530/25,590/35 (raw well reading): 72 h, listed as PAN", "experimental": "as §1"}, "[4]": {"details": "concentration 10 (unit not given)"}, "[5]": {"details": "concentration 20 (unit not given)"}, "[6]": {"details": "concentration 40 (unit not given)"}, "[7]": {"details": "concentration 80 (unit not given)"}, "[8]": {"details": "concentration 160 (unit not given)"}, "[9]": {"details": "concentration 320 (unit not given)"}, "[10]": {"details": "concentration 640 (unit not given)"}, "[11]": {"details": "concentration 1280 (unit not given)"}, "[12]": {"details": "concentration 2560 (unit not given)"}}, "note": "“And” between values parts separate entries of the source, which are not always exact repeats. Equal entries are not always repeated. Peptide text beside a SMILES is read from it. * marks the point of attachment. βNA = c1ccc2cc(N*)ccc2c1", "data": [{"smiles": "N=C(N)NCCC[C@H](NC(=O)[C@@H](N)Cc1ccccc1)C(=O)Nc1ccc2ccccc2c1", "note": "[PAβN] (H-Phe-Arg-βNA)", "values": [{"measurement": "Pierce LDH absorbance 490", "setting": "[1]; [4]", "result": "0.218 and 0.187 and 0.203"}, {"measurement": "Pierce LDH absorbance 630", "setting": "[1]; [4]", "result": "0.102 and 0.108 and 0.118"}, {"measurement": "Pierce LDH absorbance 490", "setting": "[1]; [5]", "result": "0.185 and 0.182"}, {"measurement": "Pierce LDH absorbance 630", "setting": "[1]; [5]", "result": "0.094 and 0.098 and 0.113"}, {"measurement": "Pierce LDH absorbance 490", "setting": "[1]; [6]", "result": "0.213 and 0.202 and 0.198"}, {"measurement": "Pierce LDH absorbance 630", "setting": "[1]; [6]", "result": "0.106 and 0.115 and 0.108"}, {"measurement": "Pierce LDH absorbance 490", "setting": "[1]; [7]", "result": "0.221 and 0.196 and 0.201"}, {"measurement": "Pierce LDH absorbance 630", "setting": "[1]; [7]", "result": "0.11 and 0.102 and 0.112"}, {"measurement": "Pierce LDH absorbance 490", "setting": "[1]; [8]", "result": "0.25 and 0.23 and 0.207"}, {"measurement": "Pierce LDH absorbance 630", "setting": "[1]; [8]", "result": "0.098 and 0.096 and 0.105"}, {"measurement": "Pierce LDH absorbance 490", "setting": "[1]; [9]", "result": "0.226 and 0.222 and 0.196"}, {"measurement": "Pierce LDH absorbance 630", "setting": "[1]; [9]", "result": "0.099 and 0.109 and 0.1"}, {"measurement": "Pierce LDH absorbance 490", "setting": "[1]; [10]", "result": "0.201 and 0.208 and 0.215"}, {"measurement": "Pierce LDH absorbance 630", "setting": "[1]; [10]", "result": "0.096 and 0.11 and 0.112"}, {"measurement": "Pierce LDH absorbance 490", "setting": "[1]; [11]", "result": "0.434 and 0.517 and 0.508"}, {"measurement": "Pierce LDH absorbance 630", "setting": "[1]; [11]", "result": "0.175 and 0.213 and 0.218"}, {"measurement": "Pierce LDH absorbance 490", "setting": "[1]; [12]", "result": "0.612 and 0.538 and 0.513"}, {"measurement": "Pierce LDH absorbance 630", "setting": "[1]; [12]", "result": "0.334 and 0.228 and 0.206"}, {"measurement": "CC50 at 3 days", "setting": "[2]; read-out: CC50", "result": 1.27, "unit": "mM"}, {"measurement": "CC90 at 3 days", "setting": "[2]; read-out: CC90", "result": 3.6, "unit": "mM"}, {"measurement": "AlamarBlue fluorescence 530/25,590/35 (raw well reading)", "setting": "[3]; 10 uM", "result": "5144 and 4515 and 5435"}, {"measurement": "AlamarBlue fluorescence 530/25,590/35 (raw well reading)", "setting": "[3]; 20 uM", "result": "4321 and 4369 and 4263"}, {"measurement": "AlamarBlue fluorescence 530/25,590/35 (raw well reading)", "setting": "[3]; 40 uM", "result": "4438 and 4039 and 4264"}, {"measurement": "AlamarBlue fluorescence 530/25,590/35 (raw well reading)", "setting": "[3]; 80 uM", "result": "3781 and 3772 and 3994"}, {"measurement": "AlamarBlue fluorescence 530/25,590/35 (raw well reading)", "setting": "[3]; 160 uM", "result": "3584 and 4033 and 3977"}, {"measurement": "AlamarBlue fluorescence 530/25,590/35 (raw well reading)", "setting": "[3]; 320 uM", "result": "3356 and 3644 and 3382"}, {"measurement": "AlamarBlue fluorescence 530/25,590/35 (raw well reading)", "setting": "[3]; 640 uM", "result": "3650 and 3381 and 3133"}, {"measurement": "AlamarBlue fluorescence 530/25,590/35 (raw well reading)", "setting": "[3]; 1280 uM", "result": "2305 and 2619 and 2474"}, {"measurement": "CC10", "setting": "[3]; three days of exposure, AlamarBlue", "result": 447.71, "unit": "µM"}]}]}
